Eleven compounds from ChEMBL document CHEMBL1201862, “PubChem BioAssay data set” (2004) can be followed below.

The structures appear in SMILES notation.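 How tested: cells in 96-well plates exposed to compound for 48 hours at five concentrations. GI50 = concentration required for 50% inhibition of growth.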 Active and inactive are the calls of the source. No stated cut-off is given here; in the data, active = GI50 up to about 1.1 µM and inactive = higher.

Test systems include A549; ACHN; CCRF-CEM; EKVX; HCC 2998; HOP-92; IGROV-1; K562; MCF7; OVCAR-4; PC-3; RPMI-8226; RXF 393; SK-OV-3; SR; TK-10; U-251; UACC-257; UO-31; T47D.
What all share (assay): inhibition of tumour cell growth, NCI panel, 48 h

Regarding `COc1ccc(/C=C2\CCC(CN3CCOCC3)C2=O)cc1` (configuration not stated), the GI50 in the test on A549 was 9.57 µM (inactive); in the test with ACHN, 4.73 µM (inactive); in the test on CCRF-CEM it was 1.38 µM (inactive); with EKVX it was 7.57 µM (inactive); with HCC 2998 it was 5.48 µM (inactive); in the test on HOP-92 it was 2.52 µM (inactive). Also, the GI50 with IGROV-1 is 4 µM (inactive); with K562, 1.03 µM (active); with MCF7 it was 2.38 µM (inactive); in the test with OVCAR-4 it was 5.96 µM (inactive); with PC-3 it was 3.15 µM (inactive); in the test with RPMI-8226, 0.552 µM (active). Moreover, the GI50 was 0.942 µM (active) in the test on RXF 393; 16.4 µM (inactive) in the test on SK-OV-3; 1.46 µM (inactive) in the test on SR; 3.57 µM (inactive) with TK-10; 17.3 µM (inactive) in the test with U-251; 2.37 µM (inactive) in the test with UACC-257. Further, the GI50 with UO-31 is 8.45 µM (inactive).
As for `N#Cc1c(-c2ccccc2)c(/N=N/c2ccc(Cl)cc2)c(=O)n2c1[nH]c1ccccc12`, the GI50 with A549 is > 100 µM (inactive); in the test with ACHN, > 100 µM (inactive); in the test with CCRF-CEM, > 100 µM (inactive); with EKVX, 71.4 µM (inactive); in the test on HCC 2998, 52.6 µM (inactive); with IGROV-1 it was 73.1 µM (inactive). Besides, the GI50 is > 100 µM (inactive) in the test on MCF7; 15.7 µM (inactive) in the test on OVCAR-4; > 100 µM (inactive) in the test on PC-3; 39.9 µM (inactive) with RPMI-8226; 42.1 µM (inactive) in the test with RXF 393; 94.2 µM (inactive) in the test with SK-OV-3. Further, the GI50 in the test with T47D was 97.1 µM (inactive); in the test with TK-10, 23.3 µM (inactive); in the test on U-251 it was 21.2 µM (inactive); in the test with UACC-257, > 100 µM (inactive); in the test on UO-31, 46.9 µM (inactive).
Take `CC(C)OC(=O)C1=C2c3ncccc3C(=O)N2[C@@H](Cl)[C@@H](Cl)[C@@H]1Cl`: the GI50 with A549 is > 100 µM (inactive); in the test on ACHN, > 100 µM (inactive); with EKVX it was > 100 µM (inactive); in the test on HCC 2998, > 100 µM (inactive); in the test with HOP-92, > 100 µM (inactive); in the test with IGROV-1, 96.4 µM (inactive). Besides, the GI50 is 33.4 µM (inactive) with K562; 84.3 µM (inactive) in the test on MCF7; > 100 µM (inactive) in the test with OVCAR-4; > 100 µM (inactive) with PC-3; 29.8 µM (inactive) in the test with RPMI-8226; > 100 µM (inactive) in the test with RXF 393. Also, the GI50 with SR was 49.5 µM (inactive); with TK-10, > 100 µM (inactive); in the test on U-251, > 100 µM (inactive); in the test on UACC-257, > 100 µM (inactive); in the test with UO-31, > 100 µM (inactive).
For `O=C1CCCC2=C1CC1=C(CCCC1=O)N2c1ccc(Cl)cc1`, the GI50 in the test with A549 was > 100 µM (inactive); in the test on ACHN, > 100 µM (inactive); with CCRF-CEM it was 69.7 µM (inactive); in the test with EKVX, > 100 µM (inactive); in the test on HCC 2998, > 100 µM (inactive); in the test with IGROV-1, > 100 µM (inactive). Further, the GI50 in the test with K562, in the test with MCF7, in the test on OVCAR-4, in the test on PC-3, with RPMI-8226 and in the test on RXF 393 was > 100 µM (inactive) each time. In addition, the GI50 in the test with SK-OV-3 was > 100 µM (inactive); in the test on SR, 50.1 µM (inactive); in the test with TK-10, > 100 µM (inactive); with U-251, > 100 µM (inactive); in the test with UACC-257, > 100 µM (inactive); in the test on UO-31, > 100 µM (inactive).
For the compound `CC1(C)OC(=O)N(c2ccccc2)C12C=Cc1cc([N+](=O)[O-])ccc1O2` (configuration not stated), the GI50 in the test with A549 is 53.2 µM (inactive); in the test on ACHN, 97.1 µM (inactive); in the test with CCRF-CEM, 29.1 µM (inactive); in the test with EKVX, 23.8 µM (inactive); in the test with HCC 2998, 29.2 µM (inactive); in the test on HOP-92 it was 20.2 µM (inactive). The GI50 with IGROV-1 was 32.7 µM (inactive); in the test on K562, 29 µM (inactive); with OVCAR-4 it was 61.8 µM (inactive); with PC-3 it was 22.7 µM (inactive); in the test on RPMI-8226 it was 48.5 µM (inactive); with RXF 393, 60.3 µM (inactive). Besides, the GI50 in the test on SK-OV-3 was 28.9 µM (inactive); with SR it was 19.6 µM (inactive); in the test with T47D it was 33 µM (inactive); in the test with TK-10 it was 39.4 µM (inactive); in the test on U-251 it was 35.8 µM (inactive); in the test with UACC-257 it was 23.5 µM (inactive). Besides, in the test on UO-31, the GI50 was 25.1 µM (inactive).
`COc1cc(C2SCC(=O)N2c2ccccc2Cl)cc(OC)c1OC` (configuration not stated): the GI50 is > 100 µM (inactive) in the test on A549; > 100 µM (inactive) with ACHN; 80.4 µM (inactive) in the test on CCRF-CEM; > 100 µM (inactive) in the test with EKVX; > 100 µM (inactive) in the test with HCC 2998; > 100 µM (inactive) with HOP-92. Also, the GI50 with IGROV-1 was > 100 µM (inactive); in the test with K562 it was > 100 µM (inactive); in the test with MCF7 it was 62.1 µM (inactive); with OVCAR-4, > 100 µM (inactive); in the test on PC-3, > 100 µM (inactive); with RPMI-8226 it was 90.2 µM (inactive). Moreover, the GI50 is > 100 µM (inactive) in the test on SK-OV-3; 43.1 µM (inactive) in the test with SR; > 100 µM (inactive) in the test on TK-10; > 100 µM (inactive) with U-251; > 100 µM (inactive) in the test with UACC-257; > 100 µM (inactive) in the test with UO-31.
For `N/C(=N\c1ccc(Cl)cc1)NS(=O)(=O)c1cc(Cl)c(Oc2ccc([N+](=O)[O-])cc2Cl)c(Cl)c1`, the GI50 is 17.2 µM (inactive) in the test on A549; 16 µM (inactive) in the test with ACHN; 19.7 µM (inactive) with CCRF-CEM; 16.9 µM (inactive) in the test on EKVX; 17.2 µM (inactive) with HOP-92; 15.8 µM (inactive) in the test with IGROV-1. Moreover, the GI50 in the test on K562 is 18.7 µM (inactive); with OVCAR-4, 16 µM (inactive); with PC-3, 16.2 µM (inactive); with RXF 393 it was 15.2 µM (inactive); in the test with SK-OV-3, 17.4 µM (inactive); with SR, 18.9 µM (inactive). The GI50 in the test on T47D is 14.8 µM (inactive); in the test with TK-10 it was 18.2 µM (inactive); in the test with U-251 it was 14.8 µM (inactive); in the test on UACC-257 it was 16.6 µM (inactive); in the test on UO-31 it was 18.8 µM (inactive).
With `CCC(C)[C@@H](NCc1ccccc1)[C@H](OCc1ccccc1)[C@@H]1COC(C)(C)O1` (some centres not stated), the GI50 in the test on A549 is 25.4 µM (inactive); in the test with ACHN, 20.9 µM (inactive); in the test with CCRF-CEM, 27.1 µM (inactive); in the test with EKVX, 20.5 µM (inactive); in the test with HOP-92, 10.4 µM (inactive); in the test on IGROV-1, 17.6 µM (inactive). The GI50 was 20.3 µM (inactive) in the test on K562; 21.2 µM (inactive) with MCF7; 28.8 µM (inactive) in the test with OVCAR-4; 28.6 µM (inactive) in the test with PC-3; 15.8 µM (inactive) in the test with RPMI-8226; 30.5 µM (inactive) in the test on SK-OV-3. Besides, the GI50 in the test on SR was 26.1 µM (inactive); with TK-10 it was 15.6 µM (inactive); in the test on U-251, 19.2 µM (inactive); with UACC-257, 18.7 µM (inactive); with UO-31 it was 17.3 µM (inactive).
On to `O=C1/C(=C\c2cccc(Oc3ccccc3)c2)SC(c2ccccc2)N1c1ccccc1` (configuration not stated), for which the GI50 in the test with A549 is > 100 µM (inactive); with ACHN, > 100 µM (inactive); in the test with CCRF-CEM it was 22 µM (inactive); in the test with EKVX, 57 µM (inactive); in the test with HCC 2998 it was > 100 µM (inactive); with HOP-92, 60.7 µM (inactive). The GI50 is 23.3 µM (inactive) in the test with K562; 30 µM (inactive) in the test with MCF7; 75.2 µM (inactive) with OVCAR-4; 14.8 µM (inactive) in the test on RPMI-8226; 69.5 µM (inactive) with RXF 393; > 100 µM (inactive) with SK-OV-3. In addition, the GI50 in the test on SR is 11.9 µM (inactive); in the test on T47D it was 52.5 µM (inactive); in the test on TK-10, > 100 µM (inactive); in the test with U-251 it was 25.1 µM (inactive); with UACC-257, 52.1 µM (inactive); in the test on UO-31, > 100 µM (inactive).
Consider `Cc1cccc(CNNC(=O)c2cc[n+]([BH2-]C#N)cc2)c1`, for which the GI50 is 39.1 µM (inactive) in the test on A549; 42.6 µM (inactive) with ACHN; 23.9 µM (inactive) in the test on CCRF-CEM; 36.4 µM (inactive) with EKVX; 22.4 µM (inactive) with HCC 2998; 4.47 µM (inactive) in the test with HOP-92. Further, the GI50 in the test with IGROV-1 was 22 µM (inactive); in the test on K562 it was 26.9 µM (inactive); in the test on MCF7 it was 36.5 µM (inactive); with OVCAR-4, 42 µM (inactive); in the test with PC-3, 31.6 µM (inactive); with RPMI-8226, 24.8 µM (inactive). For the same compound, the GI50 in the test on RXF 393 is 22.4 µM (inactive); with SK-OV-3, 43.6 µM (inactive); in the test on SR, 32.3 µM (inactive); in the test on TK-10, 53.7 µM (inactive); in the test with U-251 it was 39.5 µM (inactive); in the test with UACC-257 it was 37.6 µM (inactive). Also, in the test on UO-31, the GI50 is 48.1 µM (inactive).
For the compound `CC(=O)O[C@H]1CC2C(C3CCC(C(C)CCC(=O)O)[C@]31C)[C@H](OC(C)=O)C[C@@H]1CC3(CC[C@]21C)OOC1(CC[C@]2(C)C4C[C@H](OC(C)=O)[C@]5(C)C(C(C)CCC(=O)O)CCC5C4[C@H](OC(C)=O)C[C@@H]2C1)OO3` (some centres not stated), the GI50 was 1.27 µM (inactive) with A549; 1.71 µM (inactive) in the test with ACHN; 2.59 µM (inactive) in the test on CCRF-CEM; 2.81 µM (inactive) in the test on EKVX; 2.03 µM (inactive) in the test on HCC 2998; 2.12 µM (inactive) in the test on IGROV-1. Also, the GI50 with K562 is 2.44 µM (inactive); in the test with MCF7 it was 2.7 µM (inactive); with OVCAR-4, 2.8 µM (inactive); in the test with PC-3 it was 1.69 µM (inactive); in the test with RPMI-8226 it was 2.76 µM (inactive); with RXF 393, 1.36 µM (inactive). In addition, the GI50 was 4.08 µM (inactive) with SK-OV-3; 3.3 µM (inactive) with SR; 2.75 µM (inactive) with TK-10; 1.28 µM (inactive) with U-251; 2.15 µM (inactive) with UACC-257; 1.74 µM (inactive) in the test with UO-31.
